SMILES strings stand for the structures. pEC50: −log10 of the molar value.

The values that follow come from patent US9212168B2 (priority 2011, dated 2015).

One assay relates to HCV genotype 1b replicon. The experiment in a line: HCV genotype 1b replicon assay (Renilla luciferase readout). It counts as cell-based, hepatitis C virus. Particulars: Hepatitis C virus, read-out: Genotype 1b. The essentials: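 Reported as pEC50 derived from a 4-parameter fit of Renilla luciferase activity against concentration. Replicon cells (APC144, Huh7 background) were exposed to compound for 48 h in G418-free medium with final 0.5% DMSO, after seeding at 10,000 cells/well and 4 h adherence.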
(A replicon is a self-replicating genome or part of one, used to study replication in cells.)

In another assay the test system is HCV genotype 1a replicon. As to the kind of experiment: HCV genotype 1a replicon assay (NS3 protease activity readout). It counts as cell-based, hepatitis C virus. Particulars: Hepatitis C virus, read-out: Genotype 1a, HCV genotype 1a replicon. The essentials:
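EC50 values came from a 4-parameter robust fit of fluorescence (ex 340, em 509 nm) produced by NS3-specific protease in lysates, assayed with 15 μM FRET substrate for 20 min at 37° C, after 48 or 72 hours of compound exposure (0.5% DMSO) of Huh7.5-derived APC89 genotype 1a replicon cells.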

Assay [1] concerns HCV genotype 1a Y93H resistant mutant replicon. The experiment in a line: Replicon assay against resistant mutant 1a Y93H (transient transfection). The assay is classed as cell-based. Particulars: Hepatitis C virus, read-out: Genotype 1a Y93H. How it is done:
Assay 3: Replicon Assays Against Resistant Mutants […]
Potencies of test compounds against additional mutations of interest were determined using transient transfection assays. These mutants included genotype 1a Y93C, Y93H, M28T, Q30E, Q30K, L31M, and Y93N. The mutation was first introduced into the parental plasmid by site-directed mutagenesis. The replicon plasmid was then linearized and in vitro transcribed to RNA. The RNA was used to transiently transfect Huh-LUNET cells (obtained from ReBLikon GmbH, Schriesheim, Germany) by electroporation, and the potencies of test compounds against the mutants were determined as previously described.

The test system of assay [2] is HCV genotype 2a (J6 strain) NS5A chimeric replicon. The experiment in a line: Replicon assay against NS5A sequence of genotype 2a (J6 strain), intergenotypic chimera. It counts as cell-based. Particulars: Hepatitis C virus, read-out: Genotype 2a (J6). The protocol:
(§1) Assay 4: Replicon Assays Against NS5A Sequences of Other Genotypes
(§2) Potencies of test compounds against NS5A sequences of other genotypes were determined by creating intergenotypic chimeras. The entire NS5A gene from genotypes 2a, 2b, 3a, 4a, 5a, and 6a, or the nucleotide sequence encoding amino acids 11-118 of NS5A, was subcloned into a genotype 1b replicon. For genotype 2a, intergenotypic chimeras with both the JFH and the J6 strain were created. […] Since the majority of genotype 2a sequences in public databases contain the L31M sequence variant, the use of the J6 genotype 2a sequence may better reflect the antiviral potency of NS5A inhibitors.
(§3) These chimeric replicon plasmids were then linearized and in vitro transcribed to RNA. The RNA was used to transiently or stably transfect Huh-LUNET cells by electroporation, and the potencies of test compounds against the chimeras were determined as previously described.

Assay [3] deals with HCV genotype 3a NS5A chimeric replicon. As to the kind of experiment: Replicon assay against NS5A sequence of genotype 3a, intergenotypic chimera. Particulars: Hepatitis C virus, read-out: Genotype 3a. The assay is classed as cell-based. The protocol: as §1, §2, §3

On to `COC(=O)N[C@H](C(=O)N1C[C@@H](C)C[C@H]1c1nc(-c2ccc(-c3cc(F)c(NC(=O)c4ccc(N5CCN(C(=O)C(C)(C)C)C[C@H]5C)nc4)cc3OC(F)(F)F)cc2)c[nH]1)C(C)C` [Example 11, [(S)-1-((2S,4S)-2-{4-[4′-({6-[(R)-4-(2,2-Dimethyl-propionyl)-2-methyl-piperazin-1-yl]-pyridine-3-carbonyl}-amino)-5′-fluoro-2′-trifluoromethoxy-biphenyl-4-yl]-1H-imidazol-2-yl}-4-methyl-pyrrolidine-1-carbonyl)-2-methyl-propyl]-carbamic acid methyl ester], for which the pEC50 in the assay with HCV genotype 1b replicon is above 10.00; in the assay on HCV genotype 1a replicon, above 10.00; in assay [1], 6.00 to 8.00; in assay [2], 8.00 to 9.00; in assay [3], 8.00 to 9.00.
With `COC(=O)N[C@H](C(=O)N1C[C@@H](C)C[C@H]1c1nc(-c2ccc(-c3cc(Cl)c(C(=O)Nc4ccc(N5CCN(C(=O)C(C)(C)C)C[C@H]5C)nc4)cc3OC(F)(F)F)cc2)c[nH]1)C1CCOCC1` [Example 19, Methyl ((S)-2-((2S,4S)-2-(4-(5′-chloro-4′-((6-((R)-2-methyl-4-pivaloylpiperazin-1-yl)pyridin-3-yl)carbamoyl)-2′-(trifluoromethoxy)-[1,1′-biphenyl]-4-yl)-1H-imidazol-2-yl)-4-methylpyrrolidin-1-yl)-2-oxo-1-(tetrahydro-2H-pyran-4-yl)ethyl)carbamate], the pEC50 is above 10.00 in the assay on HCV genotype 1b replicon; above 10.00 in the assay with HCV genotype 1a replicon; 6.00 to 8.00 in assay [1]; 8.00 to 9.00 in assay [2]; 8.00 to 9.00 in assay [3].
